Target: T1, G6 polypeptide (Homo sapiens, UniProt Q9BYG0)
T1 construct: In order to obtain a DNA encoding the full-length G6 polypeptide, PCR was carried out; expressed in transfected cells; Triton X-100 cell extract
T1 sequence (Q9BYG0 1-378): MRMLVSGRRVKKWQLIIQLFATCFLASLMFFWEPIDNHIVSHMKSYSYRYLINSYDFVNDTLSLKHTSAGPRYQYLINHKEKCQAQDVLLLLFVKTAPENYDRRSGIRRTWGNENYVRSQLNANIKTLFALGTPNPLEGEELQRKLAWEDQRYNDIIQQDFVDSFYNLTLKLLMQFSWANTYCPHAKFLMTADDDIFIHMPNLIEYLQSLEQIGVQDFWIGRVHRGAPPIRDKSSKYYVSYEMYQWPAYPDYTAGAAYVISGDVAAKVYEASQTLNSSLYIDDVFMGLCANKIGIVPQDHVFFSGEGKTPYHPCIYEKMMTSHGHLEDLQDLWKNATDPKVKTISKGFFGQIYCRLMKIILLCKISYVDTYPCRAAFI
Test: β1,3-N-acetylglucosaminyltransferase activity of cell extract of Namalwa cells transfected with pAMo-G6, 2-aminobenzamide-labeled oligosaccharide substrates
Format: biochemical
Conditions: cell extract (20 μg protein) of pAMo-G6-transfected Namalwa cells; 2-aminobenzamide-labeled substrate; 37° C., 16 hours
Procedure: The transformant cells (about 2×10^7 cells) obtained in Example 6(1) were put into a microtube (1.5 ml: manufactured by Eppendorf), and the cells were collected by centrifugation (550×g, 7 minutes). The cells were washed with 0.9 ml of PBS, the washed cells were suspended in a solution (100 μl) containing 20 mmol/l HEPES (pH 7.2) and 2% Triton X-100 and then the cells were disrupted using a sonicator (Bioruptor; manufactured by COSMO BIO). After the mixture was allowed to stand at 4° C. for 1 hour, the supernatant was obtained by centrifugation (550×g, 7 minutes). The supernatant was used as an enzyme sample.
A β1,3-N-acetylglucosaminyltransferase activity was measured by using this enzyme sample and 2-aminobenzamide-labeled sugar chain substrates. […]
The activity measurement was carried out using known methods [FEBS, 462, 289 (1999), J. Biol. Chem., 269, 14730-14737 (1994), J. Biol. Chem., 267, 23507 (1992), J. Biol. Chem., 267, 2994 (1992)]. Specifically, the reaction was carried out at 37° C. for 16 hours in 20 μl of an assay solution [150 mmol/l MOPS (pH 7.5), 50 mmol/l UDP-GlcNAc (manufactured by SIGMA), 20 mmol/l sodium cacodylate (pH 7.2), 0.4% Triton CF-54, 10 mmol/l MnCl2, 15 mmol/l 2-aminobenzamide-labeled sugar chain substrate, the above cell extract (20 μg as protein)], and then the product was detected by high performance liquid chromatography (HPLC). […]

Compound | ratio of the substrate converted into the product [%]
CC(=O)N[C@H]1[C@H](O[C@H]2[C@@H](O)[C@@H](CO)O[C@@H](O[C@H]3[C@H](O)[C@@H](O)C(O)O[C@@H]3CO)[C@@H]2O)O[C@H](CO)[C@@H](O[C@@H]2O[C@H](CO)[C@H](O)[C@H](O)[C@H]2O)[C@@H]1O (mixture of isomers) [LNnT, lacto-N-neotetraose] | 6.11
CC(=O)N[C@H]1[C@H](O[C@H]2[C@@H](O)[C@@H](CO)O[C@@H](O[C@H]3[C@H](O)[C@@H](NC(C)=O)C(O)O[C@@H]3CO)[C@@H]2O)O[C@H](CO)[C@@H](O[C@@H]2O[C@H](CO)[C@H](O)[C@H](O)[C@H]2O)[C@@H]1O (some centres unmarked) [2LN, Galβ1-4GlcNAcβ1-3Galβ1-4GlcNAc] | 3.95
